Tested on: TTR
Experiment: Liver editing in mice by NGS (percent editing)
Format: in vivo, mouse
Conditions: CD-1 mice; 0.1 mg per kg; 7 days post dose; FIG. 7F-7G
Experimental: CD-1 female mice, ranging from 6 to 10 weeks of age were used in each study. Animals were weighed and grouped according to body weight for preparing dosing solutions based on group average weight. LNPs were dosed via the lateral tail vein in a volume of 0.2 mL per animal (approximately 10 mL per kilogram body weight). […] Body weight was measured at twenty-four hours post-administration, and animals were euthanized at various time points by exsanguination via cardiac puncture under isoflurane anesthesia. Blood was collected into serum separator tubes or into tubes containing buffered sodium citrate for plasma as described herein. […]
In brief, to quantitatively determine the efficiency of editing at the target location in the genome, genomic DNA was isolated and deep sequencing was utilized to identify the presence of insertions and deletions introduced by gene editing.
PCR primers were designed around the target site (e.g., TTR), and the genomic area of interest was amplified. […] The reads were aligned to the […] after eliminating those having low quality scores. The resulting files containing the reads were mapped to the reference genome (BAM files), where reads that overlapped the target region of interest were selected and the number of wild type reads versus the number of reads which contain an insertion, substitution, or deletion was calculated. […]

SMILES: CCCCC/C=C\C/C=C\CCCCCCCC(=O)OCC(COC(=O)CCC(OCCCCCCCC)OCCCCCCCC)COC(=O)OCCCN(CC)CC (stereo not shown) [Lipid A, (9Z,12Z)-3-((4,4-bis(octyloxy)butanoyl)oxy)-2-((((3-(diethylamino)propoxy)carbonyl)oxy)methyl) propyl octadeca-9,12-dienoate]
- potency (TTR knockdown and liver editing): highest potency
